Source: PubChem BioAssay (NCI)
Where “and” joins values, the source holds several entries; their conditions need not be identical. Equal entries are not always repeated.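 Method: 48-hour compound exposure of cells in 96-well plates, five concentrations, linear interpolation of endpoints. The concentration for 50% growth inhibition is given as GI50. TGI marks complete inhibition of growth.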

Experiments:
Assay in all cases: NCI-60 cell line screen, 48 h
COLO 205 colon = test system: COLO 205 colon
HCT-15 colon = test system: HCT-15 colon
HT29 colon = test system: HT29 colon
MOLT-4 leukemia = test system: MOLT-4 leukemia
PC-3 prostate = test system: PC-3 prostate
SN12C renal = test system: SN12C renal
SW-620 colon = test system: SW-620 colon
UACC-257 melanoma = test system: UACC-257 melanoma

Compound	TGI (COLO 205 colon)	TGI (HCT-15 colon)	TGI (HT29 colon)	TGI (MOLT-4 leukemia)	TGI (PC-3 prostate)	TGI (SN12C renal)	TGI (SW-620 colon)	TGI (UACC-257 melanoma)	GI50 (COLO 205 colon)	GI50 (HCT-15 colon)	GI50 (HT29 colon)	GI50 (PC-3 prostate)	GI50 (SN12C renal)	GI50 (SW-620 colon)
S=c1ncc(-c2cncc(-c3cnc(=S)[nH]c3)n2)c[nH]1	> 100 µM	> 100 µM	> 100 µM	> 100 µM	> 100 µM	> 100 µM	> 100 µM	> 100 µM	–	–	–	–	–	–
Cc1cccc2c(=O)c3c(O)cc(O)cc3n(C)c12	> 100 µM	> 100 µM	> 100 µM	> 100 µM	> 100 µM	> 100 µM	> 100 µM	> 100 µM	–	–	–	–	–	–
NCCCN(CCCCN(CCCN)CCCc1ccccc1)CCCc1ccccc1	3.18 µM	4.24 µM	4.32 µM	5.21 µM	12.3 µM	16.9 µM	10.6 µM	3.45 µM	–	–	–	–	–	–
NC1=Nc2cc(C(F)(F)F)ccc2Sc2nc3ccccc3n21	> 100 µM	> 100 µM	> 100 µM	> 100 µM	> 100 µM	> 100 µM	> 100 µM	> 100 µM	–	–	–	–	–	–
COc1ccc(OC)c2c(C(C)=O)cccc12	> 100 µM	> 100 µM	–	> 100 µM	> 100 µM	> 100 µM	> 100 µM	> 100 µM	–	–	–	–	–	–
c1ccc(C(Oc2noc3ccccc23)c2ccccc2)cc1	37 µM	> 100 µM	> 100 µM	71.7 µM	> 100 µM	> 100 µM	> 100 µM	99.6 µM	–	–	–	–	–	–
CN(C(=O)Cc1ccccc1)n1cn[n+](CC(=O)OC(C)(C)C)c1	> 10 µM	> 10 µM	> 10 µM	> 10 µM	> 10 µM	> 10 µM	> 10 µM	> 10 µM	–	–	–	–	–	–
CC(C)c1cc(=O)[nH]c2cc(N)ccc12	> 100 µM	> 100 µM	> 100 µM	> 100 µM	> 100 µM	> 100 µM	> 100 µM	> 100 µM	–	–	–	–	–	–
CN(CCN)[C@H](CSSC[C@@H](c1ccccc1O)N(C)CCN)c1ccccc1O	> 53.6 µM	18.6 µM	21.3 µM	23 µM	30.2 µM	23.2 µM	> 57.3 µM	32.8 µM	–	–	–	–	–	–
COCN1C(=O)[C@@H]2CCCN2C(=O)c2ccc(N)cc21	> 100 µM	> 100 µM	> 100 µM	> 100 µM	> 100 µM	> 100 µM	> 100 µM	> 100 µM	–	–	–	–	–	–
C=C1OC2OC(C)C(NC(=O)OCC(Cl)(Cl)Cl)C(OC(C)=O)C2O1 (stereo not given)	> 100 µM	> 100 µM	> 100 µM	> 100 µM	> 100 µM	> 100 µM	> 100 µM	> 100 µM	–	–	–	–	–	–
OCCc1ccsc1-c1sc(-c2cc(CCO)c(-c3sc(-c4cc(CCO)c(-c5sccc5CCO)s4)cc3CCO)s2)cc1CCO	5.03 µM	3.52 µM	3.99 µM	–	2.67 µM	–	3.98 µM	2.9 µM	–	–	–	–	–	–
CCN(CC)c1c(C(C)(C)C)c(=O)n2ccsc2c1OC(C)=O	31.8 µM	30.7 µM	28.4 µM	> 100 µM	23.6 µM	32.6 µM	30.6 µM	30.7 µM	–	–	–	–	–	–
CCCC(=O)Nc1cc(C(=O)N2C[C@H]3C[C@@]34C2=CC(=O)c2[nH]cc(C)c24)n(COC)c1	1.14 µM and 0.261 µM	17.8 µM and 2.31 µM	4.47 µM and 20.5 µM	–	–	4.18 µM and 0.684 µM	82.2 µM	0.833 µM	0.119 µM	0.242 µM	0.296 µM	0.147 µM	0.168 µM	0.184 µM
Cc1ccc(S(=O)(=O)OC[C@@]2(C)CC[C@]3(C)CC[C@]4(C)C(=C3C2)C=C[C@@H]2[C@@]3(C)CCCNC(C)(C)[C@@H]3CC[C@]24C)cc1	–	–	–	–	2.98 µM	–	3.54 µM	–	–	–	–	1.53 µM	–	1.78 µM
CCOC(=O)c1ccc(N(CCOS(C)(=O)=O)CCOS(C)(=O)=O)cc1	> 100 µM	> 100 µM	> 100 µM	48.1 µM	> 100 µM	–	> 100 µM	> 100 µM	–	–	–	–	–	–
Cc1nn2c(=O)c([N+](=O)[O-])c(/C=C/c3ccc(F)cc3)nc2s1	16.7 µM	16.5 µM	16.5 µM	28.6 µM	22 µM	21.2 µM	19.3 µM	22.3 µM	–	–	–	–	–	–
Cc1sc(/N=C/C2=C(O)CC(C)(C)CC2=O)nc1-c1ccccc1	> 100 µM	> 100 µM	> 100 µM	> 100 µM	> 100 µM	> 100 µM	> 100 µM	> 100 µM	–	–	–	–	–	–
O=C1c2cc3c(cc2NC(c2ccccc2F)C1O)OCO3 (stereo not given)	> 39.8 µM	> 100 µM	43.3 µM	> 83.9 µM	> 100 µM	> 66.9 µM	> 100 µM	> 100 µM	–	–	–	–	–	–
CC1CC(=O)N(N(C)C)C2(C#N)C(=O)N=C(N)C12C#N (stereo not given)	> 100 µM	> 100 µM	> 100 µM	> 100 µM	> 100 µM	> 100 µM	> 100 µM	> 100 µM	–	–	–	–	–	–
Cc1ccc(S(=O)(=O)N/N=C2\C=CC3(CC2)C(=O)N(I)c2ccccc23)cc1 (stereo not given)	> 100 µM	> 100 µM	> 100 µM	> 100 µM	> 100 µM	> 100 µM	> 100 µM	> 100 µM	–	–	–	–	–	–
CC(=O)O[C@H]1[C@@H](N2CCOCC2)C[C@H]2[C@@H]3CC=C4C[C@@H](N5CCCC5)CC[C@]4(C)[C@H]3CC[C@@]21C	> 100 µM	> 100 µM	> 100 µM	> 100 µM	> 100 µM	> 100 µM	> 100 µM	> 100 µM	–	–	–	–	–	–
COc1ccc(-c2nc3ccccc3c(=O)[nH]2)cc1	> 100 µM	> 100 µM	> 100 µM	> 100 µM	> 100 µM	> 100 µM	> 100 µM	> 100 µM	–	–	–	–	–	–
O=C(O)CN1C(=O)c2ccc(NC(=O)C(=O)O)cc2S1(=O)=O	> 100 µM	> 100 µM	–	> 100 µM	> 100 µM	> 100 µM	> 100 µM	> 100 µM	–	–	–	–	–	–
Cc1c(C#N)c2nnn(-c3cccc(Cl)c3)c(=O)n2c1-c1ccccc1	2.35 µM	> 100 µM	9.18 µM	–	9.91 µM	62 µM	> 100 µM	> 100 µM	–	–	–	–	–	–
CCCCCCCCCCCC1N=C(N)N=C(N)N1c1cccc(Br)c1 (stereo not given)	–	26.3 µM	1.71 µM	–	–	–	2.26 µM	–	–	5.2 µM	0.412 µM	–	–	0.837 µM
